Read-outs that look alike come from different tables or passages of the source.
Tests used:
[1] = target: T1, T-type calcium channel α1H (Cav3.2) (Homo sapiens, UniProt O95180); test: Two-electrode voltage clamp on Xenopus unfertilized oocytes expressing α1H T-type calcium channel; assay type: cell-based; conditions: test potential -20 mV from -90 mV; for inhibition at 100 µM: read-out: inhibitory effect (blocking percentage), Xenopus oocyte (α1H) at 100 μM
T1 construct: expressed in transfected cells; host or cells: Xenopus laevis unfertilized oocytes injected with cRNA (pGEM-HEA linearised with AflII, T7 transcription)
T1 sequence (O95180 whole entry): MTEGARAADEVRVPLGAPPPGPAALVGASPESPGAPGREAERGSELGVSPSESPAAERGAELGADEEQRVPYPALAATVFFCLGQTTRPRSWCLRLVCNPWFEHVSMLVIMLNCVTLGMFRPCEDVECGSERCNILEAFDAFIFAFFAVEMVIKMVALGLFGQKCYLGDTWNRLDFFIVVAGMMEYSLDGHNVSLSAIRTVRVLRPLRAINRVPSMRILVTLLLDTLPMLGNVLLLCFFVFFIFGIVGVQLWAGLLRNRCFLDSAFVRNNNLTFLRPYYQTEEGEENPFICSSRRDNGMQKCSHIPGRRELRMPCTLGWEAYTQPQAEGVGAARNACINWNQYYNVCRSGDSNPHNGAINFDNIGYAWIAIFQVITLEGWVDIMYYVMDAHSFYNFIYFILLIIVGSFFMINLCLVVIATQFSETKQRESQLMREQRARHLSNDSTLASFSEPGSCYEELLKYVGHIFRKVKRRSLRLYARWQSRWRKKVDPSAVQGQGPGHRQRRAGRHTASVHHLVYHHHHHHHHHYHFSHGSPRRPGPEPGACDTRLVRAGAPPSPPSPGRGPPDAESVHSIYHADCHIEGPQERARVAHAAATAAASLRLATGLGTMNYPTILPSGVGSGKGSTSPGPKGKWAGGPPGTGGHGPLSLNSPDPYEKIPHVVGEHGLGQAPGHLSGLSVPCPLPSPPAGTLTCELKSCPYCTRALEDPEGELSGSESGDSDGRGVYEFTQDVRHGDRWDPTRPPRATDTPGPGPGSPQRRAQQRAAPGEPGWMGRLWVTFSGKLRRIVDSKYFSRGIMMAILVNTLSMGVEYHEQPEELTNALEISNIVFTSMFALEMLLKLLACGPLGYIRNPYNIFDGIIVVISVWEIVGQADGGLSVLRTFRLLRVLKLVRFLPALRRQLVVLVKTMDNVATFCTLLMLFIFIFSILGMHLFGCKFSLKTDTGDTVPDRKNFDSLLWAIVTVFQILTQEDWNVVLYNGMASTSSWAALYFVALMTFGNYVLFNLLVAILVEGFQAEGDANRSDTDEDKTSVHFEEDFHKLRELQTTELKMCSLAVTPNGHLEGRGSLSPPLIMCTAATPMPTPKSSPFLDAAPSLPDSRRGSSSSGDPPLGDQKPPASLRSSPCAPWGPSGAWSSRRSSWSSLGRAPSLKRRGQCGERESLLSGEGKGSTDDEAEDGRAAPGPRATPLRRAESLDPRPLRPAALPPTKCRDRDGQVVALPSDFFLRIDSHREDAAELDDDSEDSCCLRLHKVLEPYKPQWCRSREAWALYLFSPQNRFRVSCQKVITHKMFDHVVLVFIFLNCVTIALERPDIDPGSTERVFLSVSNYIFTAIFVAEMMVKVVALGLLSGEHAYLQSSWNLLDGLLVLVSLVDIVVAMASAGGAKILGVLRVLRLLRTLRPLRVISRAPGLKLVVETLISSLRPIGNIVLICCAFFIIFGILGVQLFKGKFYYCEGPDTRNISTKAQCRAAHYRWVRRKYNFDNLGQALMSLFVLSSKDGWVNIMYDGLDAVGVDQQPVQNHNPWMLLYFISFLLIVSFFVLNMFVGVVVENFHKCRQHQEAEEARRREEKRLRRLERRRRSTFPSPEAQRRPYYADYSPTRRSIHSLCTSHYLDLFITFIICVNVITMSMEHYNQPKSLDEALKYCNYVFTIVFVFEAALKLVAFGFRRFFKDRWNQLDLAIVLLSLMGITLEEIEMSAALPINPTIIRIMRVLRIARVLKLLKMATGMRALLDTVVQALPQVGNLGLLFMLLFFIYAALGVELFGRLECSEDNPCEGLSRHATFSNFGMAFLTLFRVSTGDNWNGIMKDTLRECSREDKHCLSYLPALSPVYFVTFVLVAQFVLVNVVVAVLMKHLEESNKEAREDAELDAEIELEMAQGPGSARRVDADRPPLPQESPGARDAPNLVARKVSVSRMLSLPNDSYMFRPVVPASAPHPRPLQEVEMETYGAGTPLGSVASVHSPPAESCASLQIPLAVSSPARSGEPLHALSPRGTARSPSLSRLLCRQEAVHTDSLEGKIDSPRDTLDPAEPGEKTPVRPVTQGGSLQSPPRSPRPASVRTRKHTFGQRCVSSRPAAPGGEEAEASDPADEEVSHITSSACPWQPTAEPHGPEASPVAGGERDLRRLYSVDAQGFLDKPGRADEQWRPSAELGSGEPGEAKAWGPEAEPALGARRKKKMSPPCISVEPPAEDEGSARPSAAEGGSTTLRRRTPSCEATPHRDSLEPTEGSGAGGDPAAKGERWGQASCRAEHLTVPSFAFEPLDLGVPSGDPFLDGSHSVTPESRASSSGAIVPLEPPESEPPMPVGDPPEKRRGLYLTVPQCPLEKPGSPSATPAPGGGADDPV
Protocol: In order to express a gene encoding T-type calcium channel α1H (Cav3.2) (Cribbs, L. L. et al., Circ. Res., 1998, 83, 103-109) in unfertilized Xenopus oocytes, pGEM-HEA was treated with restriction enzyme AflII to obtain a DNA fragment containing 5′-terminal region having the T-type calcium channel cDNA (AF051946). cRNA having a corresponding sequence to that of the fragment was synthesized using T7 RNA polymerase according to the manufacturer's instructions (mMESSAGE mMACHINE kit, Ambion, Austin, U.S.A.). The synthesized cRNA was quantified by measuring the O.D. value with a spectrophotometer. At this time, unfertilized oocytes were prepared from female Xenopus laevis (Xenopus I, U.S.A.) according to the following method. After the frog's abdomen was incised by about 1 cm, three to four lobes were detached therefrom with scissors and separated into small pieces to which several oocytes were attached. The small pieces were hydrolyzed in OR solution (82.5 mM NaCl, 2.5 mM KCl, 1 mM MgCl2, 5 mM HEPES, pH 7.6) and supplemented with collagenase type IA (Sigma, U.S.A.) to remove defolliculation. After selecting healthy oocytes with a dissecting microscope, they were soaked in SOS solution (100 mM NaCl, 2 mM KCl, 1.8 mM CaCl2, 1 mM MgCl2, 5 mM HEPES, 2.5 mM pyruvate, […] gentamicin, pH 7.6) for 3 to 4 hours to revitalize them. 2 to 5 ng of cRNA was injected into each oocyte using Nano-injector. The oocytes were subjected to a test in order to examine the electrical properties of the channel expressed therefrom 4 to 5 days after the injection while being maintained at 18° C.
The current of the calcium channel expressed from the Xenopus unfertilized oocytes was measured according to a two-electrode voltage clamping method. The current was measured in 10 mM Ba^2+ solution (10 mM Ba(OH)2, 90 mM NaOH, 1 mM KCl, 0.1 mM EDTA, 5 mM HEPES, pH was adjusted to 7.4 with methanesulfonic acid). At this time, the voltage clamp and current measurement were regulated with an amplifier for unfertilized oocytes (Model OC-725C, Warner Instrument Corp., U.S.A.), and analog signals were converted into digital signals using Digidata 2000A (Analog-Digital converter, Axon Instrument). The acquisition, storage and analysis of all data were recorded in Pentium IV computer via pCLAMP8. The data were mainly collected at 5 KHz and filtered at 1 KHz (Model 902 filter; Frequency devices located at Harverhill, Mass., U.S.A.). The T-type current was generated by imposing test electric potential of −20 mV every 15 seconds on the unfertilized oocytes, the potential of which was fixed at −90 mV. A blocking percentage was calculated by comparing the […] before and after the drug treatment.

[2] = target: T2, α1G T-type calcium channel (Rattus norvegicus, UniProt O54898); test: Whole cell patch clamp on HEK 293 cells expressing α1G T-type calcium channel; assay type: cell-based; conditions: for IC50: read-out: IC50, HEK293 cells (α1G)
T2 construct: expressed in transfected cells; Perez-Reyes, University of Virginia
T2 sequence (O54898 whole entry): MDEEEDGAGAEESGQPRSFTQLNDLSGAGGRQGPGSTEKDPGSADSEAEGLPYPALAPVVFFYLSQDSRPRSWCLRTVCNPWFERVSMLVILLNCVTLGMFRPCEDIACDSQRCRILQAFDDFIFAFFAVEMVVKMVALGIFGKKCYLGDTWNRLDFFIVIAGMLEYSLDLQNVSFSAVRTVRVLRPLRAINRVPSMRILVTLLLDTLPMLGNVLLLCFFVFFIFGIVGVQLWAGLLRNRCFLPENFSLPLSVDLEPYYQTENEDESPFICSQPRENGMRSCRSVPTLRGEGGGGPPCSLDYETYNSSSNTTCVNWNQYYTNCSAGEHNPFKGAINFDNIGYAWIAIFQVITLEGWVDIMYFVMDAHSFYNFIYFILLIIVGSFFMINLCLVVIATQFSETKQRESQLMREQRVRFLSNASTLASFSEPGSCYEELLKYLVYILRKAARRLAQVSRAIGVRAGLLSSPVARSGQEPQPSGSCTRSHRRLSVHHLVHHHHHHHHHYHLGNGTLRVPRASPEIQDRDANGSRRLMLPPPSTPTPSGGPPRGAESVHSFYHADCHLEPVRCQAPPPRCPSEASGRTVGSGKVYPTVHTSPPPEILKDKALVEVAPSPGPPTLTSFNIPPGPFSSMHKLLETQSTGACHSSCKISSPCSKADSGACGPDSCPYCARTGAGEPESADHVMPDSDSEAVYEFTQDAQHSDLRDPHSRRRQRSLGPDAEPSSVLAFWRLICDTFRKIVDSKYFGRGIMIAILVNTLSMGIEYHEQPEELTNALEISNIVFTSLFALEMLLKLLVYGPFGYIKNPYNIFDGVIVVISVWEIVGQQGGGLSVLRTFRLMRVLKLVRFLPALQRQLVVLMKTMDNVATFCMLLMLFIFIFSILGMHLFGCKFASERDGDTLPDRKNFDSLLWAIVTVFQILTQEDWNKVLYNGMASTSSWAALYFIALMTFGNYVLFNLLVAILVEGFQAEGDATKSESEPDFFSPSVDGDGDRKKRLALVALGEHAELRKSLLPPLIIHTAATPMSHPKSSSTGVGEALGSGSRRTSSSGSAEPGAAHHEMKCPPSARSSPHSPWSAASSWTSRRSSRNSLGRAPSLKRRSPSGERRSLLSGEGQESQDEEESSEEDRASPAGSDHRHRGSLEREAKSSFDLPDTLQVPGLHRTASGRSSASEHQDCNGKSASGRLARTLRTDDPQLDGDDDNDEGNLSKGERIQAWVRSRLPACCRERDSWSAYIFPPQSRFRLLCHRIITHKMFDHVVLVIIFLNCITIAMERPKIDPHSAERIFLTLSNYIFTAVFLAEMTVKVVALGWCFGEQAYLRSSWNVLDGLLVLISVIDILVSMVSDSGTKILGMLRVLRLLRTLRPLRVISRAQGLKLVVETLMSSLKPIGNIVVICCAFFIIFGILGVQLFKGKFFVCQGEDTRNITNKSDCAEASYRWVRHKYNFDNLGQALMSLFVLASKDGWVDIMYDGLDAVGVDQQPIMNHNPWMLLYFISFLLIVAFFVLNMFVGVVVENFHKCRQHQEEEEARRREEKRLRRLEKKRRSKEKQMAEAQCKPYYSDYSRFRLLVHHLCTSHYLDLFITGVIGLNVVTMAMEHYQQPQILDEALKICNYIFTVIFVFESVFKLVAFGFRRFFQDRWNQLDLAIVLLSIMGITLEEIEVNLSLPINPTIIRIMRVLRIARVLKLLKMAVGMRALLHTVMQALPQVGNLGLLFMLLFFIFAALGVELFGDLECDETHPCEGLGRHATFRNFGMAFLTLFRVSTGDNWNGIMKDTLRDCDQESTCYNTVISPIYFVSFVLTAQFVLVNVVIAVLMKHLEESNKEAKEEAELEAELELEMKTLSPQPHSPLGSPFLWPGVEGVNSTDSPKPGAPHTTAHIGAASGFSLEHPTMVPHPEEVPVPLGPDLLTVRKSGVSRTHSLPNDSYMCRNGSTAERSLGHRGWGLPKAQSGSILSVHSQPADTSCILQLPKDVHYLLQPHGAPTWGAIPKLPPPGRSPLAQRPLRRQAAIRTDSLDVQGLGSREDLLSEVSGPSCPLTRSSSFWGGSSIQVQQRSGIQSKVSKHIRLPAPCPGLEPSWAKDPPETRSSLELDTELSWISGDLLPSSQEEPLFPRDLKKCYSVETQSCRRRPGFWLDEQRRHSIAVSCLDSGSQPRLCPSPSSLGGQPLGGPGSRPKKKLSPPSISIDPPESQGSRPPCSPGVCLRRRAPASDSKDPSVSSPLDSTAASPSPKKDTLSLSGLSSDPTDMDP
Protocol: HEK 293 cells were cultured in Dulbecco's modified Eagle's medium (DMEM) supplemented with 10% fetal bovine serum (FBS) and 1% penicillin/streptomycin (v/v) in 36.5° C. humidified incubator (95% air-5% CO2). The culture solution was replaced with a fresh medium every 3 to 4 days and the cultured cells were subjected to sub-culture every week. At this time, the culture solution was treated with G-418 (0.5 mg/ml) solution so that only HEK 293 cells expressing α1G T-type calcium channel can grow. The cells used for the T-type calcium channel activity assay were cultured on a cover slip coated with poly-L-lysine (0.5 mg/ml) whenever sub-cultured and their calcium channel activity was recorded 2 to 7 days after the cultivation. The current of the T-type calcium channel at a single cell level was measured according to an electrophysiological whole cell patch clamping method using EPC-9 amplifier (HEKA, German). At this time, a cell exterior solution [140 mM NaCl, 2 mM CaCl2, 10 mM HEPES (pH 7.4)] and a cell interior solution [KCl 130 mM, HEPES 10 mM, EGTA 11 mM, MgATP 5 mM (pH 7.4)] were employed. The inward current caused by the T-type calcium channel activation was measured according to a T-type calcium channel protocol activated at low current. Such current occurs when the cells were converted into a whole-cell recording mode by stabbing a microglass electrode having 3-4 MΩ resistance, which was filled with the cell interior solution into a single cell and depolarized at −30 mV (50 ms duration period) every 10 seconds with fixing membrane potential to −100 mV.
In order to confirm whether the cells and methods used in Test Example 2 are a suitable screening system for selecting T-type calcium channel blockers, the results obtained in Example 2 were compared with those of α1G T-type calcium channel study reported in a public document (Monteil, A. et al., J. Biol. Chem. 275, 6090-6100, 2000). […] Thus, the candidate compounds were subjected to a test for their inhibitory effects on the T-type calcium channel according to the screening system of the present invention, as follows. Each compound was dissolved in 100% dimethylsulfoxide (DMSO) to prepare 10 mM stock solution. The inhibitory effect on the T-type calcium channel current was examined in 10 μM sample solution (containing 0.1% DMSO) prepared by diluting the stock solution by 1000-fold. The cells were treated with each compound at a concentration of 10 μM for 30 to 60 sec with the cell exterior solution.

[3] = HEK293, 10 μM, HEK 293 cells expressing α1G, 30 to 60 sec treatment, read-out: inhibitory effect on peak current, HEK293 cells (α1G) at 10 μM
[4] = HEK293, read-out: inhibitory effect on peak current, HEK293 cells (α1G) at 10 μM

Compound	inhibition at 100 µM [1] [%]	inhibition at 10 µM [2, 3] [%]	inhibitory effect (blocking percentage), Xenopus oocyte (α1H) at 100 μM [1] [%]	IC50 ([2]; HEK 293 cells expressing α1G) [µM]	inhibition at 10 µM [2, 4] [%]
O=C(CC1c2ccccc2N=C(c2ccccc2)N1c1ccccc1)NCc1ccccc1 (stereo not shown) [Compound 05031]	14.8	–	–	–	–
CCO/C(O)=C(\C#N)C1=Nc2ccccc2C(CC(=O)OC)N1c1ccccc1 (stereo not shown) [Compound 05033]	38.9	–	–	–	–
CN1CCN(C2=Nc3ccccc3C(CC(=O)NCc3ccccc3)N2c2ccccc2)CC1 (stereo not shown) [KYS05028, 4-(N-benzylacetamido)-3-phenyl-2-(4-methylpiperazinyl)-3,4-dihydroquinazoline]	70.3	–	–	35.8	29
O=C(CC1c2ccccc2N=C(N2CCCCC2)N1c1ccccc1)NCc1ccc([N+](=O)[O-])cc1 (stereo not shown) [KYS05034, 4-[N-(4-nitrobenzyl)acetamido]-3-phenyl-2-(piperidine-1-yl)-3,4-dihydroquinazoline]	91.9	–	–	2.5	92.3
COCC(=O)O[C@]1(CCN(C)CCCc2nc3ccccc3[nH]2)CCc2cc(F)ccc2[C@@H]1C(C)C [Mibefradil, reference compound]	86	–	86.0	–	–

Continued, in another order:

inhibition at 100 µM [1] [%]	inhibition at 10 µM [2, 3] [%]	inhibitory effect (blocking percentage), Xenopus oocyte (α1H) at 100 μM [1] [%]	Compound	IC50 ([2]; HEK 293 cells expressing α1G) [µM]	inhibition at 10 µM [2, 4] [%]
20.9	–	–	O=C(CC1c2ccccc2N=C(N2CCOCC2)N1c1ccccc1)OCc1ccccc1 (stereo not shown) [Compound 05027]	–	–
32.7	–	–	CN1CCN(C2=Nc3ccccc3C(CC(=O)OCc3ccccc3)N2c2ccccc2)CC1 (stereo not shown) [Compound 05029]	–	–
14.2	–	–	O=C(CC1c2ccccc2N=C(c2ccccc2)N1c1ccccc1)OCc1ccccc1 (stereo not shown) [Compound 05032]	–	–
66.8	43.5	–	Nc1ccc(CNC(=O)CC2c3ccccc3N=C(N3CCCCC3)N2c2ccccc2)cc1 (stereo not shown) [Compound 05040]	14.4	–
63.8	40.5	–	O=C(CC1c2ccccc2N=C(N2CCOCC2)N1c1ccccc1)NCc1ccccc1 (stereo not shown) [KYS05026, 4-(N-benzylacetamido)-3-phenyl-2-(morpholin-1-yl)-3,4-dihydroquinazoline]	21.6	–

From patent US7271260B2, “3,4-dihydroquinazoline derivatives as T-type calcium channel blockers and method of preparing the same” (Korea Institute of Science and Technology, priority 2004, dated 2007)
